The target in one assay is T1, recombinant ATX-HA (Homo sapiens, UniProt Q13822).
T1 construct: HA
Briefly: Autotaxin assay (FS-3 hydrolysis). It is filed as biochemical. The settings on record: 10.0 μM, FS-3 substrate, preliminary single-dose screen; for inhibition at 10 µM: read-out: Inhibition (%) of autotaxin (ATX) phosphodiesterase activity. The method, then:
Autotaxin Assay. This assay utilizes FS-3 (Echelon Biosciences, Inc. Salt Lake City, Utah) as substrate and recombinant ATX-HA. For analysis, 50 μl of ATX-HA (0.25 μg) in assay buffer (Tris 50 mM, NaCl 140 mM, KCl 5mM, CaCl2 1 mM, MgCl2 1 mM, pH 8.0) was mixed with 25 μl of FS-3 (1 μM final concentration in assay buffer) and 25 μl of test compound dissolved in assay buffer containing 1:1.5 bovine serum albumin in 96-well plate. FS-3 fluorescence was monitored using FLEXstation fluorescence plate reader at a time zero and after 2 hours of incubation at 37° C. at excitation and emission wavelengths of 485 nm and 538 nm, respectively. Data was normalized to the corresponding vehicle control and the mean±standard deviation of triplicate wells were expressed as percent ATX inhibition. IC50, and Ki values were calculated as described.

In the next assay the target is T2, human LPA2 (Homo sapiens, UniProt Q9HBW0).
T2 construct: expressed in transfected cells
T2 sequence (Q9HBW0 whole entry): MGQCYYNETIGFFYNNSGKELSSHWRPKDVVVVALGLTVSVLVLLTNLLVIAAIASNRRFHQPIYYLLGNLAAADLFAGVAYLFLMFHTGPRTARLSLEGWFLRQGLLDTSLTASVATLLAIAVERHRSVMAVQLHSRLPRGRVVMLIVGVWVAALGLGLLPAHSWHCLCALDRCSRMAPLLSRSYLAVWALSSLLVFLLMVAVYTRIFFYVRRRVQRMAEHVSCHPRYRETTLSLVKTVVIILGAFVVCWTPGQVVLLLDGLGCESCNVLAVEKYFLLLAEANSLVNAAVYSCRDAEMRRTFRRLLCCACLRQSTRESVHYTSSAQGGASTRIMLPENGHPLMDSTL
Briefly: Ca2+ mobilization assay, LPA2. The class given is cell-based. Particulars: for EC50: RH7777 cells stably expressing LPA2, agonist mode; for IC50: read-out: LPA2 IC50; for Ki: read-out: LPA2 (Ki). The method, then:
(§1) Receptor activation using Ca^2+ mobilization assay for diastereomers of 1 (also represented as 19b). The rat hepatoma (RH7777) cell lines individually expressing either LPA1, LPA2, LPA3 or LPA5 receptors and Chinese hamster ovary (CHO) cell line were analyzed to examine agonism and antagonism. […] CHO cells stably expressing either vector or LPA4 were kindly gifted from Dr. Shimizu (University of Tokyo, Tokyo, Japan).
(§2) Stable transformants of LPA1/2/3 receptors. RH7777 cells stably expressing each receptor were plated onto poly-L-lysine (PLL) (0.1 mg/mL)-coated black-wall clear-bottom 96-well plates (Corning Incorporated Life Sciences, Acton, Mass.) at a density of 5×10^4 cells/well and cultured overnight. The following day, the culture medium was replaced with modified Krebs buffer (120 mM NaCl, 5 mM KCl, 0.62 mM MgSO4, 1.8 mM CaCl2, 10 mM HEPES, 6 mM glucose, pH 7.4), and the cells were serum starved for 6 h. Subsequently, cells were loaded with Fura-2 AM (Invitrogen, Carlsbad, Calif.) for 35 min in modified Krebs buffer containing 2% (v/v) pluronic acid.
(§3) After incubating the cells with Fura-2 AM, the cells were rinsed with Krebs buffer and changes in the intracellular Ca^2+ concentration were monitored by determining the ratio of emitted light intensities at 520 nm in response to excitation at 340 and 380 nm using FLEXstation II (Molecular Devices, Sunnyvale, Calif.). Each well was monitored for 80-120 sec. For testing agonist activity of the compounds, the test compounds were added automatically after 15 sec of baseline measurement. […] Each test was performed in quadruplicate. EC50, IC50, and Ki values were calculated by fitting a sigmoid function to data points with the nonlinear curve-fitting feature of KaleidaGraph (Synergy Software, Essex Junction, Vt.).
(§4) Receptor activation using Ca^2+ mobilization assay. The assay for mobilization of intracellular Ca^2+ was performed as described. Briefly, rat hepatoma RH7777 cells stably expressing human LPA1, LPA2, or LPA3, and CHO cells stably expressing LPA4, were loaded with Fura-2 AM (Molecular Probes). Using a FLEXStation (Molecular Devices, Sunnyvale, Calif.), changes in intracellular Ca^2+ concentration were monitored. Ligand-induced changes in fluorescence were monitored for 80-120 seconds. Ca^2+ transients were quantified automatically by calculating the difference between maximum and baseline ratio values for each sample. […] Each test was performed in quadruplicate. EC50, IC50, and Ki values were calculated as described. The ligand properties of the compounds were evaluated using Ca^2+ mobilization assay for assessing the activation/inhibition of LPA1, LPA2, and LPA3 expressed in RH7777 cells and LPA4 expressed in CHO cells.

Another assay deals with T3, human LPA3 (Homo sapiens, UniProt Q9UBY5).
T3 construct: expressed in transfected cells
T3 sequence (Q9UBY5 1-353): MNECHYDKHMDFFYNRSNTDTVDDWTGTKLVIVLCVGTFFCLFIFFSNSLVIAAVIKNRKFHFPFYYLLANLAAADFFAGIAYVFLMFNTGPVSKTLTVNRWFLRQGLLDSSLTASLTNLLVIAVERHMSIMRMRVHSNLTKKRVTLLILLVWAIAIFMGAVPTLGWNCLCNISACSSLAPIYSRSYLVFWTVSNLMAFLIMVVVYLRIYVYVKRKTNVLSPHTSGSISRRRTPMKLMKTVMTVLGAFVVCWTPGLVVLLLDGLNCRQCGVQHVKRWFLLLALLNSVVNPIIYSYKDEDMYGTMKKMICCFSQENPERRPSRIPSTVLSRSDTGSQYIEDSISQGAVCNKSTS
As to the kind of experiment: Ca2+ mobilization assay, LPA3. The settings on record: for Emax: Emax = (maximal efficacy of compound/maximal efficacy of LPA 18:1) × 100; for EC50: RH7777 cells stably expressing LPA3, agonist mode. The class given is cell-based. The procedure:
as §1, §2, §3, §4

Another assay addresses T4, human LPA4 (Homo sapiens, UniProt Q99677).
T4 construct: expressed in transfected cells
As to the kind of experiment: Ca2+ mobilization assay, LPA4 in CHO cells. The class given is cell-based. The settings on record: for EC50: CHO cells stably expressing LPA4, agonist mode. The procedure:
as §1
Stable transformants of LPA4. CHO cells stably expressing either vector or LPA4 were plated on non-coated 96 well plates at a density of 4×10^4 cells/well and cultured overnight. The following day, cells were loaded with Fura-2 AM for 1 h in modified Krebs buffer containing 2% (v/v) pluronic acid and 2.5 mM probenecid.
as §3, §4

A further assay addresses T5, human LPA1 (Homo sapiens, UniProt Q92633).
T5 construct: expressed in transfected cells
Briefly: Ca2+ mobilization assay, LPA1. The class given is cell-based. Particulars: for EC50: RH7777 cells stably expressing LPA1, agonist mode; for IC50 / Ki: antagonist mode vs 200 nM LPA; for IC50: PA = partial antagonist, read-out: LPA1 IC50; for Ki: read-out: LPA1 (Ki). The procedure: as §1, §2
After incubating the cells with Fura-2 AM, the cells were rinsed with Krebs buffer and changes in the intracellular Ca^2+ concentration were monitored by determining the ratio of emitted light intensities at 520 nm in response to excitation at 340 and 380 nm using FLEXstation II (Molecular Devices, Sunnyvale, Calif.). Each well was monitored for 80-120 sec. For testing agonist activity of the compounds, the test compounds were added automatically after 15 sec of baseline measurement. To determine antagonist properties, varying concentrations of the compounds were mixed with a constant concentration of LPA and responses were monitored. Each test was performed in quadruplicate. EC50, IC50, and Ki values were calculated by fitting a sigmoid function to data points with the nonlinear curve-fitting feature of KaleidaGraph (Synergy Software, Essex Junction, Vt.).
Receptor activation using Ca^2+ mobilization assay. The assay for mobilization of intracellular Ca^2+ was performed as described. Briefly, rat hepatoma RH7777 cells stably expressing human LPA1, LPA2, or LPA3, and CHO cells stably expressing LPA4, were loaded with Fura-2 AM (Molecular Probes). Using a FLEXStation (Molecular Devices, Sunnyvale, Calif.), changes in intracellular Ca^2+ concentration were monitored. Ligand-induced changes in fluorescence were monitored for 80-120 seconds. Ca^2+ transients were quantified automatically by calculating the difference between maximum and baseline ratio values for each sample. To determine antagonist properties, different concentrations of each analogue were mixed with either palmitoyl (16:0) or oleoyl (18:1) LPA (200 nM for LPA1 and LPA3, 10 nM for LPA2, and 400 nM for LPA4) (Avanti Polar Lipids, Inc., […], Ala.) and responses were recorded. Each test was performed in quadruplicate. EC50, IC50, and Ki values were calculated as described. The ligand properties of the compounds were evaluated using Ca^2+ mobilization assay for assessing the activation/inhibition of LPA1, LPA2, and LPA3 expressed in RH7777 cells and LPA4 expressed in CHO cells. Table l illustrates calcium responses elicited through the activation of human LPA1, LPA2, LPA3 and LPA4 receptors. These cell lines have been used extensively for the characterization of LPA GPCR ligands because RH7777 cells are intrinsically unresponsive to LPA and CHO cells show minimal endogenous responses to LPA unless transfected with LPA4.

The mark [1] stands for this setting: antagonist mode vs 10 nM LPA, PA = partial antagonist.

Read-outs that look alike come from different tables or passages of the source.

T5 sequence (Q92633 whole entry): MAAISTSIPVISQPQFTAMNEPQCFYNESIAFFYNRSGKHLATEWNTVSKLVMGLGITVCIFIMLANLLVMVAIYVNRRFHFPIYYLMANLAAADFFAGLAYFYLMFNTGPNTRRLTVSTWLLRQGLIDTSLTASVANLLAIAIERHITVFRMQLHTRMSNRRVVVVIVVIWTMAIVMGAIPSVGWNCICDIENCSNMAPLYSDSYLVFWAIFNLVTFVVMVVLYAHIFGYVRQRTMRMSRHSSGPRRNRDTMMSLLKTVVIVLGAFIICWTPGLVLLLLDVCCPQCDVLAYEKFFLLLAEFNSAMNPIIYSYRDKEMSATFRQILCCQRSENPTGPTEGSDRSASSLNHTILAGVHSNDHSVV
T4 sequence (Q99677 whole entry): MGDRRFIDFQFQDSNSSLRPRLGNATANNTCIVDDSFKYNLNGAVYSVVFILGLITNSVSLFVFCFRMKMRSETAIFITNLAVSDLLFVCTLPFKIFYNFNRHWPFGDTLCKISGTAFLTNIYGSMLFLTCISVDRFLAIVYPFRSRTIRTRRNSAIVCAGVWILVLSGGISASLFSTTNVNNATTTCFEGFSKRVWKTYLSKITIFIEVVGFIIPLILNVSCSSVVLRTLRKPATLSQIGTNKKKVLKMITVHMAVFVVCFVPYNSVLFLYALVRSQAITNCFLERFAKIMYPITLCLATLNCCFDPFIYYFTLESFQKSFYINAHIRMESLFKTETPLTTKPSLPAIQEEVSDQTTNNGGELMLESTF

Regarding `CCCCCCCC/C=C\CCCCCCCC(=O)OC[C@@H](O)CC(Cl)P(=O)(O)O` (mixture of isomers) [Compound 18a, [1-Chloro-3(S)-hydroxyl-4-(oleoyloxy)butyl]-phosphonate], the inhibition at 10 µM on recombinant ATX-HA amounted to 92.5 ± 2.1%. Further, the EC50 is over 30 µM on human LPA2, over 2.67 µM at human LPA3, 3.48 ± 0.561 µM at human LPA4 and 0.528 µM at human LPA1. Also, the figures for the concentration for half-maximal inhibition (IC50) on human LPA2 (setting [1]), on human LPA2 (antagonist of the LPA2 receptor) and on human LPA1 were 1.69 ± 0.085 µM, 1.7 µM and over 30 µM, respectively. At human LPA2 (antagonist mode vs 10 nM LPA), the Ki was 0.845 µM. The Emax on human LPA3 was 63.5%; at human LPA4 (CHO, Emax = (maximal efficacy of compound/maximal efficacy of LPA 18:1) × 100) it was 40.5%; at human LPA1 (Emax = (maximal efficacy of compound/maximal efficacy of LPA 18:1) × 100) it was 63.2%.
As for `CCCCCCCCCCCCCCCC(=O)OC[C@@H](O)CC(Cl)P(=O)(O)O` (mixture of isomers) [Compound 18b, [1-Chloro-3(S)-hydroxyl-4-(palmitoyloxy)butyl]-phosphonate], on recombinant ATX-HA, the inhibition at 10 µM stood at 83 ± 2.1%. For the same compound, the EC50 on human LPA2, at human LPA3, on human LPA4 and at human LPA1 was over 30 µM throughout. Further, the IC50 on human LPA2 (setting [1]) was determined as 0.855 µM; on human LPA3 (read-out: LPA3 IC50) it was 0.175 µM; on human LPA1 it was 2.49 ± 0.69 µM. Also, the Ki on human LPA2 (antagonist mode vs 10 nM LPA) came out at 0.428 µM; at human LPA3 (antagonist mode vs 200 nM LPA, read-out: LPA3 (Ki)), 0.0983 µM; on human LPA1 it was 0.919 µM. Further, at human LPA4 (CHO, read-out: LPA4 inhibition of 400 nM LPA response), the inhibition at 30 µM was found to be 80%.
Take `CCCCCCCC/C=C\CCCCCCCC(=O)OC[C@@H](O)CC(Br)P(=O)(O)O` (mixture of isomers) [Compound 19a, [1-Bromo-3(S)-hydroxyl-4-(oleoyloxy)butyl]-phosphonate]: the “Inhibition (%) of autotaxin (ATX) phosphodiesterase activity” value (“Inhibition (%) of autotaxin” for short) at recombinant ATX-HA came to 90.7 ± 2.3%. On recombinant ATX-HA, the inhibition at 10 µM is over 90%. The EC50 was over 30 µM on human LPA2, over 2.47 µM on human LPA3, over 30 µM at human LPA4 and over 30 µM at human LPA1. In addition, the IC50 came to 0.815 ± 0.06 µM at human LPA2 (setting [1]), 4 ± 0.424 µM at human LPA4 and 1.62 ± 0.116 µM on human LPA1. The Ki on human LPA2 (antagonist mode vs 10 nM LPA) stood at 0.174 µM; on human LPA4 (antagonist mode vs 400 nM LPA), 2.5 µM; on human LPA1, 0.694 µM. Also, the Emax on human LPA3 amounted to 44.2%.
As for `CCCCCC/C=C\CCCCCCCC(=O)OCC1COP(=O)(O)C1` (centres unmarked) [2ccPA (16:1), 2-carba cyclic phosphatidic acid 16:1, reference compound], the “Inhibition (%) of autotaxin” value at recombinant ATX-HA is 78.5 ± 2.3%.
As for `CCCCCCCCCCCCCCCC(=O)OCC(O)CC(O)P(=O)([O-])O.[Na+]` (centres unmarked) [Compound 24a, reference compound], the “Inhibition (%) of autotaxin” value at recombinant ATX-HA worked out at 56.6%. Moreover, the EC50 at human LPA2, at human LPA3, at human LPA4 and at human LPA1 was over 30 µM in each case. For the same compound, the IC50 at human LPA1 was over 30 µM.
As to `CCCCCCCCCCCCCCCC(=O)OCC(O)CC(O)P(=O)([O-])O.[Na+]` (centres unmarked) [Compound 24b, reference compound], at recombinant ATX-HA, the “Inhibition (%) of autotaxin” value came out at 43.4%. For the same compound, the EC50 on human LPA2, at human LPA3, at human LPA4 and at human LPA1 was over 30 µM each time. Moreover, the IC50 at human LPA1 is over 30 µM.

Source of the values: US8722649B2, “Alpha-chloro and alpha-bromo phosphonate analogs of lysophosphatidic acid and methods of making and using thereof” (University of Utah Research Foundation, priority 2007, dated 2014).
